Assay results published in patent US8099262B2, “Estimation of clinical cut-offs” (priority 2004, dated 2012).

Assays:
HIV [1] = assay: Logistic regression model of probability of success/failure as a function of baseline fold change resistance (clinical cut-offs); format: in vivo
Description: In such a method, Prob of success is preferably calculated by performing a logistic regression analysis using data from a clinical response dataset, wherein Prob of success is modelled according to the following equation: […]
The clinical outcome results (drop in viral load and response rate) were modelled as a function of baseline fold change (FC) as determined by virtual phenotype (see WO01/79540 and WO02/33402; also http://www.vircolab.com). The models applied were linear regression, logistic regression, and a classification tree. These models also took into account effects of the concomitant HIV drugs (PSS), baseline viral load (Baseline Log(V1)i) and, optionally, treatment history in order to avoid bias introduced by imbalances of important characteristics. From the models, a prediction of clinical outcome could be made at different levels of the baseline fold change resistance.
In the logistic regression, the proposed equation was the following: […]
However, by binning the viral load into successes and failures, part of the information of the continuous variable viral load is lost. Estimates are also corrected for covariates as for linear regression.
The maximum effect was defined as the treatment effect at fold change 1, and the minimum effect was defined as the treatment effect at a very high fold change (i.e. when the curve reached a plateau). The effect range was then the difference between the maximum effect and the minimum effect.
The lower and higher cutoffs are defined as the fold change associated with an expected 20% and 80% decrease respectively of the reference activity of the drug within the regimen.

HIV [2] = format: in vivo; parameters: key to Modelled Lower Cutoff & Confidence Interval / Modelled Upper Cutoff & Confidence Interval: fold change (FC) matching VL drop at 20% and 80% loss of activity; conditions: preferred embodiment of linear regression
Description: In a preferred embodiment of the linear regression model, more factors are included in order to obtain a more refined prediction of viral load response. These factors include for example a sensitivity score per drug class in addition to the overall sensitivity score of the background treatment (cPSS), previous exposure to the drug (naïve (Yes/No), naïve to PIs, naïve to NRTI's, etc. . . . ). Furthermore, in the preferred embodiment, the fold change is transformed before inserting the figures into the model. The transformation to the fold change comprises a power-transformation ranging from FC^−3 to FC^1. In addition, a quadratic term in cPSS is preferably added.
The NRTI[naïve] value represents whether the patient is naïve to nucleoside RT inhibitors. If yes, value=1, if no, value=0. The PSS[NRTI} represents the phenotypic sensitivity score for NRTIs, i.e the number of active NRTIs in the background regimen for the patient.
Stage 3: Determine Fold change equivalent to VL drop at 20% and 80% loss of activity by inserting values for VL drop into the above equation and calculating FC. […]

[3] = Definition 2, Subgroup 1: PSS = 2, baseline Log (VL) = 4
[4] = Definition 2, Subgroup 2: PSS = 0, baseline Log (VL) = 4
[5] = Definition 2, Subgroup 3: PSS = 2, baseline Log (VL) = 5
[6] = Definition 3, Subgroup 1: PSS = 2, baseline Log (VL) = 4
[7] = Definition 3, Subgroup 2: PSS = 0, baseline Log (VL) = 4
[8] = Definition 3, Subgroup 3: PSS = 2, baseline Log (VL) = 5

SMILES: CC(C)OC(=O)OCOP(=O)(CO[C@H](C)Cn1cnc2c(N)ncnc21)OCOC(=O)OC(C)C.O=C(O)/C=C/C(=O)O [TDF]
- Logistic Regression Higher CO (HIV [1]; [3]): 3.81
- Logistic Regression Lower CO (HIV [1]; [3]): 1.2
- Logistic Regression Higher CO (HIV [1]; [4]): 3.36
- Logistic Regression Lower CO (HIV [1]; [4]): 1.16
- Logistic Regression Higher CO (HIV [1]; [5]): 3.4
- Logistic Regression Lower CO (HIV [1]; [5]): 1.17
- Logistic Regression Lower CO (HIV [1]; Definition 3, Overall): 1.2
- Logistic Regression Higher CO (HIV [1]; [6]): 3.81
- Logistic Regression Lower CO (HIV [1]; [6]): 1.2
- Logistic Regression Higher CO (HIV [1]; [7]): 3.36
- Logistic Regression Lower CO (HIV [1]; [7]): 1.2
- Logistic Regression Higher CO (HIV [1]; [8]): 3.4
- Logistic Regression Lower CO (HIV [1]; [8]): 1.2
- Modelled Lower Cutoff & Confidence Interval (HIV [2]): 1.0
- Modelled Upper Cutoff & Confidence Interval (HIV [2]): 2.0
